Patent US12458647B2, “Macrocyclic derivative and use thereof” (Guangzhou Joyo Pharmatech Co., Ltd., priority 2022, dated 2025)

Experiments:
[1] = In vitro determination of whole blood to plasma concentration ratios, human; assay type: in vitro ADME; details: 1 μM, 37° C., 60 minutes
Experimental: (§1) (1) Fresh mouse and human whole blood (n≥3 for number of individual animals and n≥2 for number of individual humans) were collected in blood collection tubes containing EDTAK2 anticoagulant. Whole blood samples had to be mixed well and stored at 2-8° C. or on wet ice before use. They were used within 36 hours of whole blood collection. Blank whole blood was centrifuged at 2,000×g for 15 minutes at room temperature to obtain blank plasma. The plasma status was checked and hemolyzed plasma samples could not be used.
(§2) (2) The hematocrit (the percentage content of red blood cells in whole blood) was determined by centrifugation of whole blood samples in microhematocrit centrifuge tubes.
(§3) (3) Diclofenac (all species), chlorthalidone (mouse) or chloroquine (human) were used as control compounds.
(§4) (4) ACN solution containing 2% DMSO with a final concentration of 1 μM of the test compound was added to blank whole blood samples, and three parallel treatments were performed. The final content of the organic phase in the system should not exceed 0.5% (the content of DMSO should not exceed 0.1%). A certain volume of the drug-containing whole blood sample was pipetted to the sample receiving plate (three replicates), an equal volume of blank plasma was added, and mixed well to obtain the T0 sample.
(§5) (5) The whole blood sample containing the test compound was incubated at 37° C. with shaking for 60 minutes.
(§6) (6) After the end of incubation, a certain volume of whole blood samples containing the drug was pipetted to the sample receiving plate (three replicates) as T60-whole blood samples.
(§7) (7) The remaining whole blood samples were centrifuged at 2,000×g for 15 minutes in a 37° C. centrifuge to obtain plasma samples. A certain volume of plasma was pipetted to the sample receiving plate (three replicates) as T60-plasma samples.
(§8) (8) During sample treatment, all samples were equilibrated with the matrix (i.e., blank whole blood or blank plasma of the same volume was added) and mixed well.
(§9) (9) 1-fold volume of pure water was added to the equilibrated sample, and then a certain volume of stop solution containing internal standard compound was added to terminate the reaction.
(§10) (10) The analytes and control compounds in the samples were determined by liquid chromatography-tandem mass spectrometry (LC-MS/MS) method. The ratio of analyte peak area to internal standard peak area was used to represent the concentration in the sample.
(§11) See Table 7 for the experimental results. Wherein KB/P represents the concentration ratio of the compound in whole blood and plasma. KE/P represents the concentration ratio of the compound in red blood cells and plasma, and recovery (%) represents the recovery of the compound in whole blood.

[2] = In vitro determination of whole blood to plasma concentration ratios, mouse; assay type: in vitro ADME; details: CD-1 mouse whole blood, 1 μM, 37° C., 60 minutes
Experimental: as §1, §2, §3, §4, §5, §6, §7, §8, §9, §10, §11

[3] = Pharmacokinetic study in rats; assay type: in vivo; details: male SD rats; for AUC0-last / Cl / T1/2 / Vd / Cmax / TMax: whole blood
Experimental: To evaluate the pharmacokinetic behavior of the compounds of the present disclosure in male SD rats.
The compounds to be tested were dissolved in the vehicle (5% DMSO/10% solutol/85% water). Four male SD rats were divided into 2 groups, with 2 rats in each group. Group 1 rats were administered a single intravenous bolus injection (i.v.) of the compounds at a dose of 1 mg/kg. Group 2 rats were administered a single dose of the compounds by gavage (p.o.) at a dose of 10 mg/kg. Whole blood samples were collected at 0.083 (intravenous bolus group only), 0.25, 0.5, 1, 2, 4, 8 and 24 hours after dosing. The LC-MS/MS method was used to determine the concentration of the test compound in whole blood samples.

RKN cell line = experiment: In vitro cell proliferation experiment (5 days), RKN; assay type: cell-based; details: read-out: Inhibitory Activity IC50
Experimental: RPMI 1640 medium, DMEM, Ham's F12 medium, F12K medium, IMDM and penicillin/streptomycin antibiotics were purchased from Gibco, fetal bovine serum was purchased from Hyclone, Envision multilabel plate reader (PerkinElmer). […]
The test compound was diluted by 5-fold to 8 concentrations with a pipette, i.e., from 2 mM to 25.6 nM, and replicate wells were set up for the experiment. […] Another cell plate was prepared, and the signal value was read as the maximum value (the maximum value in the following equation) on the day of dosing for data analysis.
50 μL of cell viability chemiluminescent detection reagent was added to the cell plate and incubated at room temperature for 30 minutes to stabilize the luminescence signal. A multilabel plate reader was used for reading. […]

KB/P (concentration ratio of the compound in whole blood and plasma) [1] | KE/P (concentration ratio of the compound in red blood cells and plasma) [1] | Recovery (%) of the compound in whole blood [1] | KB/P (concentration ratio of the compound in whole blood and plasma) [2] | KE/P (concentration ratio of the compound in red blood cells and plasma) [2] | Recovery (%) of the compound in whole blood [2] | AUC0-last ([3]; i.v. 1 mg/kg) | Cl ([3]; i.v. 1 mg/kg) | T1/2 ([3]; i.v. 1 mg/kg) | Vd ([3]; i.v. 1 mg/kg) | F(%) ([3]; p.o. 10 mg/kg) | AUC0-last ([3]; p.o. 10 mg/kg) | Cmax ([3]; p.o. 10 mg/kg) | T1/2 ([3]; p.o. 10 mg/kg) | TMax ([3]; p.o. 10 mg/kg) | SMILES | IC50 (RKN cell line)
2.6 | 5.2 | 102.6% | 5.1 | 8.1 | 97.3% | 4.95 µM·h | 3.6 mL/min/kg | 8.5 h | 2.5 L/kg | 34.2% | 17.069 µM·h | 1460 nM | 7.3 h | 4.0 h | CCn1c(-c2cc(N3CCN(C)CC3)cnc2C(C)OC)c2c3cc(ccc31)-c1csc(n1)CC(NC(=O)C1CC1C)C(=O)N1NC(C(=O)OCC(C)(C)C2)C2CC1C2 (single isomer, unassigned) [Compound 7A] | 7.5 nM
3.5 | 6.5 | 96.4% | 5.3 | 9.4 | 101.5% | 4.125 µM·h | 4.6 mL/min/kg | 5.7 h | 1.9 L/kg | 38% | 15.213 µM·h | 1620 nM | 6.1 h | 1.5 h | CCn1c(-c2cc(N3CCN(C)CC3)cnc2C(C)OC)c2c3cc(ccc31)-c1csc(n1)CC(NC(=O)C1C(C)C1C)C(=O)N1NC(C(=O)OCC(C)(C)C2)C2CC1C2 (single isomer, unassigned) [Compound 6A] | 4.5 nM
